One assay concerns the target T1, PPARγ (Homo sapiens, UniProt P37231).
T1 sequence (P37231 195-477 isoform P37231-2 limits assumed): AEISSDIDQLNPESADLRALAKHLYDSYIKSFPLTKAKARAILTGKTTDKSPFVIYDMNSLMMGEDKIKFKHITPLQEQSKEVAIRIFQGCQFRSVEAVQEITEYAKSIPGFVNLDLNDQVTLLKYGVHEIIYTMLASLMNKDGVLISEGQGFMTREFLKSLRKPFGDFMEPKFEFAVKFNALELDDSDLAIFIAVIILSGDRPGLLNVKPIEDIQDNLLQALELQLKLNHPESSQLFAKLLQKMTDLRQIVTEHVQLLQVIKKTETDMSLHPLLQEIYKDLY
Nature of the assay: SPR on immobilized PPARγ. It counts as binding. Particulars: SPR, immobilized PPARγ. The method, then:
; SPR analysis was also performed using the immobilized PPARγ LBD to evaluate if this protein portion was involved in the interaction with 1; […]. Conversely, no affinity of the diterpene towards Hsp60 was observed (Fig. 2c).
To assess the potential of 1 to act as a PPARγ modulator, we investigated the structural and functional aspects of its interaction with this nuclear receptor. To define the structural features required by 1 for an efficient interaction with PPARγ, as a first step, we performed SPR analyses using some diterpenes displaying structural relationship with 1 (compounds 2–9, Fig. 1). […]. SPR analyses were carried out on a BIACORE 3000 instrument (GE-Healthcare). PPARα, PPARγ, PPARδ and HSP60 surfaces were prepared on research−grade CM5 sensor chips (GE Healthcare). Proteins (100 μg/ml in 10 mM CH3COONa, pH 5.0) were immobilized using a standard amine−coupling protocol, to obtain densities of 3–5 kRU. Testing compounds were dissolved in 100% DMSO to obtain 4 mM solutions, and then diluted in PBS containing variable amounts of DMSO, achieving a final DMSO concentration of 0.1%. […]. SPR experiments and data elaboration were carried out as reported elsewhere.

In another assay the test system is HT-29 cells. Nature of the assay: HT-29 cell growth (cell counting). Particulars: GW9662 10 μM 6 h, then compound 10 μM for 24 and 48 h.

9 compounds from publication PMC5259791 (Scientific Reports, 2017) can be followed below.

“Also recorded” adds a separate entry of the source.

Procedure for HT-29 cells: Data are the mean ± SD of three independent experiments performed in duplicate giving similar results. Significance is indicated as *p ≤ 0.05, **p ≤ 0.01 and ***p ≤ 0.001. (b) HT29 cells were seeded in 24-well in order to reach the density of cells/cm^2 in standard conditions (10^5 cells). […] The experiments were performed in triplicate and the data expressed as mean ± SD. Significance is indicated as **p ≤ 0.01 and ***p ≤ 0.001.

A word on the Kd: it is the equilibrium constant for the complex coming apart. Lower therefore signals higher affinity. In general, koff refers to the rate constant with which the complex falls apart. The low end stands for a long-lived complex, the high end for a short-lived complex. On PPARγ, `C=C1C2CCC3C(CCC4[C@@H](C(=O)OC)C[C@@H](O)C[C@]43C)(C2)[C@@H]1O` (some centres unmarked) [Compound 3] showed a Kd of 4.59 ± 0.206 µM and a koff of 0.096 s⁻¹. Turning to `C=C1C2CCC3C(CCC4[C@@H](C(=O)OC)C[C@@H](OC(C)=O)C[C@]43C)(C2)[C@H]1OC(C)=O` (some centres unmarked) [Compound 6], the KD entry at PPARγ is on record as “No binding”. Consider `CN(CCOc1ccc(CC2SC(=O)NC2=O)cc1)c1ccccn1` (centres unmarked) [Rosiglitazone, reference compound], for which, in the assay on HT-29 cells, the “cell counts after GW9662 pre-treatment versus compound alone” value is given as “less pronounced effect”. Turning to `C=C1C(=O)C23CCC4[C@@]5(C)C[C@@H](O)C[C@@]4(OC5=O)[C@@]2(C)CC[C@]1(O)C3` (some centres unmarked) [Compound 9], the KD result on PPARγ was “not detected; also recorded: No binding”. Same read-out and setting: the same measure for `C=C1C2CCC3C(CCC4[C@@H](CO)C[C@@H](O)C[C@]43C)(C2)[C@H]1O` (some centres unmarked) [Compound 5]: “No binding”; for `C=C1C(=O)C23C(O)C1CCC2C12COC3(O)C(O)C1C(C)(C)CCC2O` (centres unmarked) [Compound 8]: “not detected; also recorded: No binding”; for `C=C1C2CCC3C(CCC4[C@@H](C(=O)O)C[C@@H](O)C[C@]43C)(C2)[C@H]1O` (some centres unmarked) [Compound 4]: “No binding”. For `C=C1C2CCC3C(CCC4[C@@H](C(=O)OC)C[C@@H](O)C[C@]43C)(C2)[C@H]1O` (some centres unmarked) [Compound 2], at PPARγ, the Kd amounted to 1.86 ± 0.078 µM and the koff amounted to 0.051 s⁻¹. On to `CC1CC23CC1CCC2[C@]1(C)C[C@H](C)C[C@](C)(C(=O)O)C1CC3=O` (some centres unmarked) [Compound 7], for which the KD result on PPARγ was “No binding”.
